Assays:
[1] = tested on: RBL-2H3, a rat basophilic leukemia cell to express hematopoietic prostaglandin D synthase; test: Prostaglandin D2 production inhibition test using cells (A23187-induced, EIA); type: cell-based; details: RBL-2H3 cells, A23187 2.5 μM; for inhibition at 10 µM: Rattus norvegicus, RBL-2H3, Drug Concentration 10 μM, read-out: Inhibitory Ratio of Prostaglandin D2 (PGD2) Production (%); for Inhibitory Ratio of Prostaglandin D2 (PGD2) Production (%): Drug Concentration 10 μM
Procedure: RBL-2H3, a rat basophilic leukemia cell to express hematopoietic prostaglandin D synthase, was inoculated in a 24 well plate and incubated overnight. After replacement with a medium in the presence or absence of a test compound, preincubation was carried out at 37° C. for one hour. After washing of the cells with PBS(-), the medium was replaced with a Hepes buffer solution (pH7.4) in the presence or absence of the test compound, and incubation was continued at 37° C. for 15 minutes. Then, calcium ionophore (A23187) at a final concentration of 2.5 μM was added, and incubation was carried out at 37° C. for 15 minutes to induce the production of PGD2. The supernatant of the cells was collected, and the amount of PGD2 flowed out in the supernatant was measured by EIA kit by Cayman. The inhibitory ratio of the production of PGD2 by the test compound was calculated assuming the amount of PGD2 produced by A23187 in the absence of the test compound as being 100%.

[2] = biological target: human hematopoietic prostaglandin D2 synthase (Homo sapiens, UniProt O60760); test: Inhibitory activity against spleen-type (hematopoietic) prostaglandin D2 synthase, [14C]PGH2 to PGD2, TLC; type: biochemical; details: for inhibition at 10 µM / inhibition at 30 µM: read-out: Inhibitory Ratio of Prostaglandin D2 (PGD2) Synthase (%)
Sequence of human hematopoietic prostaglandin D2 synthase (O60760 whole entry): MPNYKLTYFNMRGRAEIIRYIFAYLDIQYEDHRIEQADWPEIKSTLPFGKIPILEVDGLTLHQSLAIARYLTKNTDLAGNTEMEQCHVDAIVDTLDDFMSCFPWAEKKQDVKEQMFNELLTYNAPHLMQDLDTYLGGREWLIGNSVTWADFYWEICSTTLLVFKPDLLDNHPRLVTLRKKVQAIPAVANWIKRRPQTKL
Procedure: A buffer solution of 100 mM Tris (hydroxymethyl)aminomethane/HCl buffer (pH8.0) containing glutathione (0.1 mM) and human hematopoietic prostaglandin D2 synthase (adequate quantity) was preincubated at 25° C. for 5 minutes in the presence or absence of a test compound, and then 14C labeled prostaglandin H2 ([14C]PGH2) (10 μM) was added, and the buffer solution was further incubated at 25° C. for one minute. A mixture of ether, methanol, and citric acid was added to the reaction mixture, and the ether layer was developed on silica gel thin-layer chromatography (TLC) (eluent=ether: methanol: acetic acid=90:2:1), and the PGD2 produced was measured by exposure to an imaging plate. The enzyme inhibitory rates of test compounds were calculated assuming the amount of production of PGD2 without the test compound being 100%.

SMILES | inhibition at 10 µM ([2]; Drug Concentration 10 μM) [%] | inhibition at 30 µM ([2]; Drug Concentration 30 μM) [%] | Inhibitory Ratio of Prostaglandin D2 (PGD2) Synthase (%) ([2]; Drug Concentration 10 μM) | Inhibitory Ratio of Prostaglandin D2 (PGD2) Synthase (%) ([2]; Drug Concentration 30 μM) | inhibition at 10 µM [1] [%] | Inhibitory Ratio of Prostaglandin D2 (PGD2) Production (%) [1] [%]
Cc1nn(-c2ccc(Cl)cc2)c(O)c1C=Nn1c(C)nc2ccccc2c1=O [Compound 17, 3-{[1-(4-chlorophenyl)-3-methyl-5-hydroxypyrazol-4-yl]methylidene}amino-2-methyl-3,4-dihydroquinazolin-4-one] | 29 |  |  |  | 21 | 
Cc1nn(-c2ccc([N+](=O)[O-])cc2)c(O)c1C=Nn1c(C)nc2ccccc2c1=O [Compound 20, 3-{[3-methyl-1-(4-nitrophenyl)-5-hydroxypyrazol-4-yl]-methylidene}amino-2-methyl-3,4-dihydroquinazolin-4-one] | 37 | 83 |  |  | 15 | 
COc1ccc(-c2nc3ccccc3c(=O)n2N=Cc2c(C)nn(-c3ccccc3)c2O)cc1 [Compound 30, 3-[(5-hydroxy-3-methyl-1-phenylpyrazol-4-yl)methylidene]-amino-2-(4-methoxyphenyl)-3,4-dihydroquinazolin-4-one] |  |  | 51 | 71 |  | 28

Second part, led by results:

inhibition at 10 µM ([2]; Drug Concentration 10 μM) [%] | inhibition at 30 µM ([2]; Drug Concentration 30 μM) [%] | Inhibitory Ratio of Prostaglandin D2 (PGD2) Synthase (%) ([2]; Drug Concentration 10 μM) | Inhibitory Ratio of Prostaglandin D2 (PGD2) Synthase (%) ([2]; Drug Concentration 30 μM) | SMILES | inhibition at 10 µM [1] [%] | Inhibitory Ratio of Prostaglandin D2 (PGD2) Production (%) [1] [%]
15 | 56 |  |  | Cc1nn(-c2ccccc2)c(O)c1/C=N/n1c(C)nc2ccc(Br)cc2c1=O [Compound 37, 6-bromo-3-[(5-hydroxy-3-methyl-1-phenylpyrazol-4-yl)-methylidene]amino-2-methyl-3,4-dihydroquinazolin-4-one] | 32 | 
 |  | 77 | 46 | Cc1nn(-c2ccccc2)c(O)c1C=NN1C(=O)c2ccccc2NC1CO (centres unmarked) [Compound 39, 3-[(5-hydroxy-3-methyl-1-phenylpyrazol-4-yl)methylidene]-amino-2-hydroxymethyl-1,2,3,4-tetrahydroquinazolin-4-one] |  | 70

From US20060229324A1, “Quinazolin-4-one derivatives” (priority 2002, published 2006)
